From patent US8449898B2 (priority 2007, dated 2013)
Read-outs that look alike come from different tables or passages of the source.

Legend:
[1] = system: Pseudoperonospora cubensis (the causal agent of cucumber downy mildew); test: Test B: cucumber downy mildew, preventive spray on cucumber seedlings; format: in vivo; details: for CDM Obsd (disease control rating): Table B
[2] = system: Phytophthora infestans (the causal agent of tomato late blight); test: whole plant or invertebrate; format: in vivo; details: for TLB Obsd (disease control rating): Table B; for TLB Obsd: component (b) alone
[3] = Pseudoperonospora cubensis, component (b) alone 0.4 ppm (Compound 1 0 ppm), read-out: CDM Obsd
[4] = Pseudoperonospora cubensis, component (b) alone 2 ppm (Compound 1 0 ppm), read-out: CDM Obsd
[5] = Pseudoperonospora cubensis, component (b) alone 10 ppm (Compound 1 0 ppm), read-out: CDM Obsd
[6] = Pseudoperonospora cubensis, component (b) alone 40 ppm (Compound 1 0 ppm), read-out: CDM Obsd

CSC1=N[C@@](C)(c2ccccc2)C(=O)N1Nc1ccccc1 [fenamidone]
pest or weed control at 0.08 µg/mL ([1]; Pseudoperonospora cubensis, component (b) alone 0.08 ppm (Compound 1 0 ppm), read-out: CDM Obsd): 65%
pest or weed control at 0.4 µg/mL [1, 3]: 47%
pest or weed control at 2 µg/mL [1, 4]: 82%
pest or weed control at 10 µg/mL [1, 5]: 100%
pest or weed control at 40 µg/mL [1, 6]: 100%
pest or weed control at 0.08 ppm ([1]; Pseudoperonospora cubensis, component (b) alone, 0.08 ppm, read-out: CDM Obsd): 0%
pest or weed control at 0.4 ppm ([1]; Pseudoperonospora cubensis, component (b) alone, 0.4 ppm, read-out: CDM Obsd): 0%
pest or weed control at 2 ppm ([1]; Pseudoperonospora cubensis, component (b) alone, 2 ppm, read-out: CDM Obsd): 85%
pest or weed control at 10 ppm ([1]; Pseudoperonospora cubensis, component (b) alone, 10 ppm, read-out: CDM Obsd): 100%
pest or weed control at 40 ppm ([1]; Pseudoperonospora cubensis, component (b) alone, 40 ppm, read-out: CDM Obsd): 100%
pest or weed control at 0.08 ppm ([2]; Phytophthora infestans, read-out: TLB Obsd, component (b) alone, 0.08 ppm): 22%
pest or weed control at 0.4 ppm ([2]; Phytophthora infestans, read-out: TLB Obsd, component (b) alone, 0.4 ppm): 30%
pest or weed control at 2 ppm ([2]; Phytophthora infestans, read-out: TLB Obsd, component (b) alone, 2 ppm): 99%
pest or weed control at 10 ppm ([2]; Phytophthora infestans, read-out: TLB Obsd, component (b) alone, 10 ppm): 100%
pest or weed control at 40 ppm ([2]; Phytophthora infestans, read-out: TLB Obsd, component (b) alone, 40 ppm): 100%

O=[N+]([O-])c1cc(C(F)(F)F)c(Cl)c([N+](=O)[O-])c1Nc1ncc(C(F)(F)F)cc1Cl [fluazinam]
pest or weed control at 0.4 ppm ([1]; Pseudoperonospora cubensis, Table C, component (b) alone 0.4 ppm, read-out: CDM Obsd (disease control rating)): 57%
pest or weed control at 2 ppm ([1]; Pseudoperonospora cubensis, Table C, component (b) alone 2 ppm, read-out: CDM Obsd (disease control rating)): 60%
pest or weed control at 10 ppm ([1]; Pseudoperonospora cubensis, Table C, component (b) alone 10 ppm, read-out: CDM Obsd (disease control rating)): 91%
pest or weed control at 40 ppm ([1]; Pseudoperonospora cubensis, Table C, component (b) alone 40 ppm, read-out: CDM Obsd (disease control rating)): 100%
pest or weed control at 200 ppm ([1]; Pseudoperonospora cubensis, Table C, component (b) alone 200 ppm, read-out: CDM Obsd (disease control rating)): 100%
pest or weed control at 0.4 µg/mL [1, 3]: 47%
pest or weed control at 2 µg/mL [1, 4]: 57%
pest or weed control at 10 µg/mL [1, 5]: 92%
pest or weed control at 40 µg/mL [1, 6]: 100%
pest or weed control at 200 µg/mL ([1]; Pseudoperonospora cubensis, component (b) alone 200 ppm (Compound 1 0 ppm), read-out: CDM Obsd): 100%
pest or weed control at 0.04 ppm ([1]; Pseudoperonospora cubensis, component (b) alone, 0.04 ppm, read-out: CDM Obsd (observed effect, cucumber downy mildew)): 56%
pest or weed control at 2 ppm ([1]; Pseudoperonospora cubensis, component (b) alone, 2 ppm, read-out: CDM Obsd (observed effect, cucumber downy mildew)): 89%
pest or weed control at 10 ppm ([1]; Pseudoperonospora cubensis, component (b) alone, 10 ppm, read-out: CDM Obsd (observed effect, cucumber downy mildew)): 98%
pest or weed control at 40 ppm ([1]; Pseudoperonospora cubensis, component (b) alone, 40 ppm, read-out: CDM Obsd (observed effect, cucumber downy mildew)): 100%
pest or weed control at 200 ppm ([1]; Pseudoperonospora cubensis, component (b) alone, 200 ppm, read-out: CDM Obsd (observed effect, cucumber downy mildew)): 100%
pest or weed control at 0.4 ppm ([2]; Phytophthora infestans, read-out: TLB Obsd (disease control rating), Table C, component (b) alone 0.4 ppm): 17%
pest or weed control at 2 ppm ([2]; Phytophthora infestans, read-out: TLB Obsd (disease control rating), Table C, component (b) alone 2 ppm): 40%
pest or weed control at 10 ppm ([2]; Phytophthora infestans, read-out: TLB Obsd (disease control rating), Table C, component (b) alone 10 ppm): 80%
pest or weed control at 40 ppm ([2]; Phytophthora infestans, read-out: TLB Obsd (disease control rating), Table C, component (b) alone 40 ppm): 98%
pest or weed control at 200 ppm ([2]; Phytophthora infestans, read-out: TLB Obsd (disease control rating), Table C, component (b) alone 200 ppm): 100%
pest or weed control at 0.04 ppm ([2]; Phytophthora infestans, read-out: TLB Obsd (observed effect, tomato late blight), component (b) alone, 0.04 ppm): 23%
pest or weed control at 2 ppm ([2]; Phytophthora infestans, read-out: TLB Obsd (observed effect, tomato late blight), component (b) alone, 2 ppm): 71%
pest or weed control at 10 ppm ([2]; Phytophthora infestans, read-out: TLB Obsd (observed effect, tomato late blight), component (b) alone, 10 ppm): 99%
pest or weed control at 40 ppm ([2]; Phytophthora infestans, read-out: TLB Obsd (observed effect, tomato late blight), component (b) alone, 40 ppm): 99%
pest or weed control at 200 ppm ([2]; Phytophthora infestans, read-out: TLB Obsd (observed effect, tomato late blight), component (b) alone, 200 ppm): 100%

O=C(NCc1ncc(C(F)(F)F)cc1Cl)c1c(Cl)cccc1Cl [fluopicolide]
CDM Obsd (disease control rating) ([1]; component (b) alone 0.08 ppm): 47%
CDM Obsd (disease control rating) ([1]; component (b) alone 0.4 ppm): 47%
CDM Obsd (disease control rating) ([1]; component (b) alone 2 ppm): 94%
CDM Obsd (disease control rating) ([1]; component (b) alone 10 ppm): 100%
CDM Obsd (disease control rating) ([1]; component (b) alone 40 ppm): 100%
CDM Obsd ([1]; component (b) alone 0.08 ppm (Compound 1 0 ppm)): 33%
CDM Obsd ([1]; component (b) alone 0.4 ppm (Compound 1 0 ppm)): 79%
CDM Obsd ([1]; component (b) alone 2 ppm (Compound 1 0 ppm)): 96%
CDM Obsd ([1]; component (b) alone 10 ppm (Compound 1 0 ppm)): 100%
CDM Obsd ([1]; component (b) alone 40 ppm (Compound 1 0 ppm)): 100%
CDM Obsd ([1]; component (b) alone, 0.08 ppm): 0%
CDM Obsd ([1]; component (b) alone, 0.4 ppm): 0%
CDM Obsd ([1]; component (b) alone, 2 ppm): 83%
CDM Obsd ([1]; component (b) alone, 10 ppm): 100%
CDM Obsd ([1]; component (b) alone, 40 ppm): 100%
TLB Obsd (disease control rating) ([2]; component (b) alone 0.08 ppm): 26%
TLB Obsd (disease control rating) ([2]; component (b) alone 0.4 ppm): 9%
TLB Obsd (disease control rating) ([2]; component (b) alone 2 ppm): 59%
TLB Obsd (disease control rating) ([2]; component (b) alone 10 ppm): 100%
TLB Obsd (disease control rating) ([2]; component (b) alone 40 ppm): 100%
TLB Obsd ([2]; 0.08 ppm): 7%
TLB Obsd ([2]; 0.4 ppm): 0%
TLB Obsd ([2]; 2 ppm): 90%
TLB Obsd ([2]; 10 ppm): 100%
TLB Obsd ([2]; 40 ppm): 100%
